# Results taken from PubChem BioAssay (NCI).
#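 Dose response: 5 concentrations. Exposure: 48 h. Format: 96-well plates. Endpoint: linear interpolation; highest concentration if not reached. Here, GI50 denotes the concentration required for 50% inhibition of growth. TGI: total growth inhibition.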
# What was measured:
# Experiment in all cases: DTP human tumour cell line panel, 48 h
# [1] = tested on: HCC-2998 colon
# [2] = tested on: NCI/ADR-RES ovarian
# [3] = tested on: SW-620 colon
# [4] = tested on: HOP-92 NSCLC
# [5] = tested on: M14 melanoma
# [6] = tested on: K-562 leukemia
# [7] = tested on: RXF 393 renal
# [8] = tested on: SK-MEL-2 melanoma
# [9] = tested on: U251 CNS
# [10] = tested on: SF-268 CNS
# [11] = tested on: MDA-MB-231 breast
# [12] = tested on: CCRF-CEM leukemia
# [13] = tested on: SK-MEL-5 melanoma
# [14] = tested on: A549 NSCLC
# [15] = tested on: MDA-N
# [16] = tested on: ACHN renal
# [17] = tested on: UACC-62 melanoma
# [18] = tested on: NCI-H23 lung
# [19] = tested on: HT29 colon
# [20] = tested on: OVCAR-4 ovarian
# [21] = tested on: DU-145 prostate
# [22] = tested on: SK-MEL-28 melanoma
# [23] = tested on: CAKI-1 renal
# [24] = tested on: MALME-3M melanoma
# [25] = tested on: NCI-H460 lung
# [26] = tested on: TK-10 renal
# [27] = tested on: SF-295 CNS
# [28] = tested on: 786-0 renal
# [29] = tested on: NCI-H226 lung
# [30] = tested on: RPMI-8226 leukemia
# [31] = tested on: HCT-116 colon
# [32] = tested on: OVCAR-8 ovarian
# [33] = tested on: SR leukemia
# [34] = tested on: OVCAR-5 ovarian
# [35] = tested on: SF-539 CNS
# [36] = tested on: COLO 205 colon
# [37] = tested on: EKVX NSCLC
# [38] = tested on: UACC-257 melanoma
# [39] = tested on: A498 renal
# [40] = tested on: HS 578T breast
# [41] = tested on: LOX IMVI melanoma
# [42] = tested on: SNB-19 CNS
# [43] = tested on: SNB-75 CNS
# [44] = tested on: T-47D breast
# [45] = tested on: IGROV1 ovarian
# [46] = tested on: PC-3 prostate
# [47] = tested on: KM12 colon
# [48] = tested on: HOP-62 NSCLC
# [49] = tested on: MDA-MB-435
# [50] = tested on: SN12C renal
# [51] = tested on: OVCAR-3 ovarian
# [52] = tested on: BT-549 breast
# [53] = tested on: MCF7 breast
# [54] = tested on: NCI-H522 lung
# [55] = tested on: HCT-15 colon
# [56] = tested on: UO-31 renal
# [57] = tested on: SK-OV-3 ovarian
# [58] = tested on: HL-60(TB) leukemia
# [59] = tested on: MOLT-4 leukemia
compound,measurement,setting,value
CN1C/C(=C\c2ccc(Cl)cc2)C(=O)/C(=C/c2ccc(Cl)cc2)C1,TGI,[1],> 100 µM
same,TGI,[2],> 22.5 µM
same,TGI,[3],> 100 µM
same,TGI,[4],> 100 µM
same,TGI,[5],5.48 µM
same,TGI,[6],> 100 µM
same,TGI,[7],1.22 µM
same,TGI,[8],> 100 µM
same,TGI,[9],2.46 µM
same,TGI,[10],> 100 µM
same,TGI,[11],8.08 µM
same,TGI,[12],1.37 µM
same,TGI,[13],> 26.5 µM
same,TGI,[14],> 100 µM
same,TGI,[15],8.86 µM
same,TGI,[16],> 25.3 µM
same,TGI,[17],8.35 µM
same,TGI,[18],> 22.3 µM
same,TGI,[19],0.824 µM
same,TGI,[20],> 65.9 µM
same,TGI,[21],> 100 µM
same,TGI,[22],> 100 µM
same,TGI,[23],> 27.6 µM
same,TGI,[24],> 100 µM
same,TGI,[25],4.59 µM
same,TGI,[26],> 100 µM
same,TGI,[27],2.07 µM
same,TGI,[28],1.26 µM
same,TGI,[29],8.7 µM
same,TGI,[30],0.895 µM
same,TGI,[31],0.482 µM
same,TGI,[32],0.605 µM
same,TGI,[33],5.47 µM
same,TGI,[34],> 100 µM
same,TGI,[35],1.8 µM
same,TGI,[36],5.62 µM
same,TGI,[37],> 90.6 µM
same,TGI,[38],2.44 µM
same,TGI,[39],3.2 µM
same,TGI,[40],> 100 µM
same,TGI,[41],0.612 µM
same,TGI,[42],> 100 µM
same,TGI,[43],> 100 µM
same,TGI,[44],> 100 µM
same,TGI,[45],> 100 µM
same,TGI,[46],> 100 µM
same,TGI,[47],2.39 µM
same,TGI,[48],> 28.5 µM
same,TGI,[49],> 100 µM
same,TGI,[50],> 100 µM
same,TGI,[51],6.57 µM
CCN(CC)CCOc1ccc(Nc2ncc3cc(-c4c(Cl)cccc4Cl)c(=O)n(CCOC)c3n2)cc1,GI50,[1],1.25 µM
same,TGI,[1],3.57 µM
same,GI50,[2],0.415 µM
same,TGI,[2],7.2 µM
same,GI50,[3],1.2 µM
same,TGI,[3],5.86 µM
same,GI50,[52],0.533 µM
same,TGI,[52],2.7 µM
same,GI50,[4],0.0163 µM
same,TGI,[4],0.322 µM
same,GI50,[5],0.233 µM
same,TGI,[5],1.5 µM
same,GI50,[53],1.57 µM
same,TGI,[53],8.4 µM
same,GI50,[6],0.005 µM
same,TGI,[6],18.2 µM
same,GI50,[7],0.0184 µM
same,TGI,[7],0.133 µM
same,GI50,[54],0.134 µM
same,TGI,[54],1.8 µM
same,GI50,[8],0.493 µM
same,TGI,[8],7.6 µM
same,GI50,[9],0.608 µM
same,TGI,[9],5 µM
same,GI50,[10],0.145 µM
same,TGI,[10],1.29 µM
same,GI50,[11],0.0432 µM
same,TGI,[11],0.813 µM
same,GI50,[12],1.11 µM
same,TGI,[12],18.1 µM
same,GI50,[13],1.51 µM
same,TGI,[13],5.94 µM
same,GI50,[55],0.128 µM
same,TGI,[55],6.1 µM
same,GI50,[14],0.498 µM
same,TGI,[14],4.18 µM
same,GI50,[56],0.012 µM
same,TGI,[56],0.179 µM
same,GI50,[57],0.064 µM
same,TGI,[57],7.35 µM
same,GI50,[16],0.0205 µM
same,TGI,[16],5.72 µM
same,GI50,[17],0.206 µM
same,TGI,[17],7.04 µM
same,GI50,[18],0.806 µM
same,TGI,[18],3.95 µM
same,GI50,[19],0.105 µM
same,TGI,[19],2.27 µM
same,GI50,[20],0.946 µM
same,TGI,[20],6.99 µM
same,GI50,[21],0.217 µM
same,TGI,[21],2.8 µM
same,GI50,[22],1.71 µM
same,TGI,[22],8.97 µM
same,GI50,[23],0.0149 µM
same,TGI,[23],0.174 µM
same,GI50,[24],0.39 µM
same,TGI,[24],3.95 µM
same,GI50,[25],0.562 µM
same,TGI,[25],4.77 µM
same,GI50,[26],0.0785 µM
same,TGI,[26],0.832 µM
same,GI50,[27],0.375 µM
same,TGI,[27],6.07 µM
same,GI50,[28],0.0324 µM
same,TGI,[28],5.28 µM
same,GI50,[29],0.1 µM
same,TGI,[29],7.89 µM
same,GI50,[30],0.921 µM
same,TGI,[30],3.15 µM
same,GI50,[31],0.159 µM
same,TGI,[31],1.16 µM
same,GI50,[32],0.2 µM
same,TGI,[32],3.95 µM
same,GI50,[33],0.459 µM
same,TGI,[33],2.15 µM
same,GI50,[34],0.137 µM
same,TGI,[34],7.09 µM
same,GI50,[35],0.0557 µM
same,TGI,[35],0.821 µM
same,GI50,[36],0.148 µM
same,TGI,[36],2.43 µM
same,GI50,[37],0.796 µM
same,TGI,[37],7.38 µM
same,GI50,[38],0.881 µM
same,TGI,[38],4.58 µM
same,GI50,[39],0.0235 µM
same,TGI,[39],0.16 µM
same,GI50,[40],0.0273 µM
same,TGI,[40],1.57 µM
same,GI50,[41],0.0318 µM
same,TGI,[41],0.153 µM
same,GI50,[58],0.496 µM
same,TGI,[58],2.06 µM
same,GI50,[42],0.458 µM
same,TGI,[42],6.01 µM
same,GI50,[43],0.00601 µM
same,TGI,[43],0.0454 µM
same,GI50,[44],0.133 µM
same,TGI,[44],16.5 µM
same,GI50,[45],0.0138 µM
same,TGI,[45],0.0983 µM
same,GI50,[46],3.49 µM
same,TGI,[46],18.6 µM
same,GI50,[59],0.781 µM
same,TGI,[59],5.41 µM
same,GI50,[47],0.655 µM
same,TGI,[47],7.64 µM
same,GI50,[48],0.0715 µM
same,TGI,[48],7.05 µM
same,GI50,[49],0.469 µM
same,TGI,[49],2.5 µM
same,GI50,[50],0.0237 µM
same,TGI,[50],5.37 µM
same,GI50,[51],0.483 µM
same,TGI,[51],2.96 µM
